Results published in US8222281B2, “Carboxylic acid compound” (Daiichi Sankyo Company, Limited, priority 2008, dated 2012).

These molecules were tested on genetically obese impaired glucose tolerance rats (Crlj:ZUC-Lepr^fa/Lepr^fa rats) (assay: Oral glucose tolerance test). Conditions: Rattus norvegicus, 0.5 h; dose 0.3 mg/kg oral; glucose 2 g/kg oral 30 minutes after compound; blood glucose 30 minutes after glucose loading; vs control group; read-out: Blood glucose lowering index (%).
Type: in vivo
Description: Oral Glucose Tolerance Test
Commercially available genetically obese impaired glucose tolerance rats (Crlj:ZUC-Lepr^fa/Lepr^fa rats, male, 11 weeks of age at the time of use, purchased from Charles River Laboratories Japan, Inc.)
(2) Experimental Method and Results
The rats were preliminarily reared for 2 weeks by feeding them laboratory chow (FR-2, Funabashi Farm Co., Ltd.) ad libitum. Then, the rats were fasted for 15 to 18 hours and used as test animals. A suspension was prepared such that the concentration of a test compound fell within a range from 0.075 to 0.25 mg/mL using a 0.5% solution of methyl cellulose (Wako Pure Chemical Industries, Ltd.). The test compound was orally administered by gavage to the rats (6 rats in each group) at a dose of 0.3 to 1 mg/kg. To the rats in the control group, a 0.5% solution of methyl cellulose was orally administered at a dose of 4 mL/kg. The oral glucose loading was performed such that a glucose solution (Otsuka Glucose Injection 50%, Otsuka Pharmaceutical Co., Ltd.) was orally administered at a dose of 2 g/kg after 30 minutes from administration of the test compound.
The blood was collected from the tail vein of each rat, and the blood glucose level was measured after 30 minutes from the oral glucose loading using a fully automatic blood glucose meter (Glucoroder GXT, A& T Corporation), and the blood glucose lowering index (%) was calculated from the following equation.
Blood glucose lowering index (%)=[1−(blood glucose level in test compound administration group)/(blood glucose level in control group)]×100
For `CCO[C@@H](CC(=O)O)c1ccc(O[C@@H]2CCc3c2ccc(F)c3C(F)(F)F)cc1` [Example 56, (3S)-3-Ethoxy-3-(4-{[(1R)-5-fluoro-4-(trifluoromethyl)-2,3-dihydro-1H-inden-1-yl]oxy}phenyl)-propionic acid], the inhibition in vivo at 0.3 mg/kg was 40%.
`CCO[C@@H](CC(=O)O)c1ccc(O[C@@H]2CCc3c(C4CC4)cccc32)cc1` [Example 64, (3S)-3-(4-{[(1R)-4-Cyclopropyl-2,3-dihydro-1H-inden-1-yl]oxy}phenyl)-3-ethoxypropionic acid] showed an inhibition in vivo at 0.3 mg/kg of 30%.
Work on `CCO[C@@H](CC(=O)O)c1ccc(O[C@@H]2CCc3c(C(F)F)cccc32)cc1` [Example 59, (3S)-3-(4-{[(1R)-4-(Difluoromethyl)-2,3-dihydro-1H-inden-1-yl]oxy}phenyl)-3-ethoxypropionic acid] yielded an inhibition in vivo at 0.3 mg/kg of 32%.
For `CCO[C@@H](CC(=O)O)c1ccc(O[C@@H]2CCc3c2cc(F)cc3C(F)(F)F)cc1` [Example 61, (3S)-3-Ethoxy-3-(4-{[(1R)-6-fluoro-4-(trifluoromethyl)-2,3-dihydro-1H-inden-1-yl]oxy}phenyl)-propionic acid], the inhibition in vivo at 0.3 mg/kg was 34%.
Molecule `CCO[C@@H](CC(=O)O)c1ccc(O[C@@H]2CCc3c(C)cc(C)cc32)cc1` [Example 62, (3S)-3-(4-{[(1R)-4,6-Dimethyl-2,3-dihydro-1H-inden-1-yl]oxy}phenyl)-3-ethoxypropionic acid] has an inhibition in vivo at 0.3 mg/kg of 33%.
In the case of `CCO[C@@H](CC(=O)O)c1ccc(O[C@@H]2COc3c(OC(F)(F)F)cccc32)cc1` [Example 55, (3S)-3-Ethoxy-3-(4-{[(3S)-7-(trifluoromethoxy)-2,3-dihydro-1-benzofuran-3-yl]oxy}phenyl)propionic acid], the inhibition in vivo at 0.3 mg/kg is reported as 38%.

Same assay, conditions: Rattus norvegicus, 0.5 h; dose 1 mg/kg oral; glucose 2 g/kg oral 30 minutes after compound; blood glucose 30 minutes after glucose loading; vs control group; read-out: Blood glucose lowering index (%)
Molecule `CCO[C@@H](CC(=O)O)c1ccc(OCc2ccc(C(F)(F)F)cc2)nc1` [Example 18, (3S)-3-Ethoxy-3-(6-{[4-(trifluoromethyl)benzyl]oxy}pyridin-3-yl)propionic acid] has an inhibition in vivo at 1 mg/kg of 35%.
Molecule `CCOC(CC(=O)O)c1ccc(OCc2ccccc2C)cc1` (centres unmarked) [Example 20, 3-Ethoxy-3-{4-[(2-methylbenzyl)oxy]phenyl}propionic acid] has an inhibition in vivo at 1 mg/kg of 15%.
Work on `CCOC(CC(=O)O)c1ccc(Oc2cc(Cl)cc(Cl)c2)cc1` (centres unmarked) [Example 24, 3-[4-(3,5-Dichlorophenoxy)phenyl]-3-ethoxypropionic acid] yielded an inhibition in vivo at 1 mg/kg of 37%.
In the case of `CCOC(CC(=O)O)c1ccc(Oc2ccc(C#N)c3ccccc23)cc1` (centres unmarked) [Example 23, 3-{4-[(4-Cyano-1-naphthyl)oxy]phenyl}-3-ethoxypropionic acid], the inhibition in vivo at 1 mg/kg is reported as 16%.
`CCO[C@@H](CC(=O)O)c1ccc(O[C@@H]2CCc3c(Cl)cccc32)cc1` [Example 50, (3S)-3-(4-{[(1R)-4-Chloro-2,3-dihydro-1H-inden-1-yl]oxy}phenyl)-3-ethoxypropionic acid] was tested, and the inhibition in vivo at 1 mg/kg was 38%.
`CCOC(CC(=O)O)c1ccc(Oc2cc(Cl)ccc2Cl)cc1` (centres unmarked) [Example 25, 3-[4-(2,5-Dichlorophenoxy)phenyl]-3-ethoxypropionic acid] gave an inhibition in vivo at 1 mg/kg of 39%.
`CCO[C@@H](CC(=O)O)c1ccc(OC2CCc3c2cccc3C(F)(F)F)cc1` (stereo partly drawn) [Example 53, (3S)-3-Ethoxy-3-(4-{[4-(trifluoromethyl)-2,3-dihydro-1H-inden-1-yl]oxy}phenyl)propionic acid] gave an inhibition in vivo at 1 mg/kg of 41%.
Work on `CCO[C@@H](CC(=O)O)c1ccc(O[C@H]2CCc3c(Cl)cccc32)cc1` [Example 52, (3S)-3-(4-{[(1S)-4-Chloro-2,3-dihydro-1H-inden-1-yl]oxy}phenyl)-3-ethoxypropionic acid] yielded an inhibition in vivo at 1 mg/kg of 15%.
`CCO[C@@H](CC(=O)O)c1ccc(O[C@@H]2CCc3c(OC(F)(F)F)cccc32)cc1` [Example 63, (3S)-3-Ethoxy-3-(4-{[(1R)-4-(trifluoromethoxy)-2,3-dihydro-1H-inden-1-yl]oxy}phenyl)propionic acid] showed an inhibition in vivo at 1 mg/kg of 45%.
For `CCO[C@@H](CC(=O)O)c1ccc(O[C@@H]2CCc3c(C)cccc32)cc1` [Example 58, (3S)-3-Ethoxy-3-(4-{[(1R)-4-methyl-2,3-dihydro-1H-inden-1-yl]oxy}phenyl)propionic acid], the inhibition in vivo at 1 mg/kg was 35%.
With `CCO[C@@H](CC(=O)O)c1ccc(O[C@@H]2CCc3c(CC)cccc32)cc1` [Example 57, (3S)-3-Ethoxy-3-(4-{[(1R)-4-ethyl-2,3-dihydro-1H-inden-1-yl]oxy}phenyl)propionic acid] the inhibition in vivo at 1 mg/kg was 50%.
With `CCO[C@@H](CC(=O)O)c1ccc(OCc2ccc(Cl)c(Cl)c2)cc1` [Example 16, (3S)-3-{4-[(3,4-Dichlorobenzyl)oxy]phenyl}-3-ethoxypropionic acid] the inhibition in vivo at 1 mg/kg was 39%.
Molecule `CCO[C@@H](CC(=O)O)c1ccc(O[C@@H]2COc3c2cccc3C(F)(F)F)cc1` [Example 60, (3S)-3-Ethoxy-3-(4-{[(3S)-7-(trifluoromethyl)-2,3-dihydro-1-benzofuran-3-yl]oxy}phenyl)propionic acid] has an inhibition in vivo at 1 mg/kg of 48%.
`CCO[C@@H](CC(=O)O)c1ccc(O[C@@H]2CCc3c2cccc3C(F)(F)F)cc1` [Example 51, (3S)-3-Ethoxy-3-(4-{[(1R)-4-(trifluoromethyl)-2,3-dihydro-1H-inden-1-yl]oxy}phenyl)propionic acid] gave an inhibition in vivo at 1 mg/kg of 42%.
`CCOC(CC(=O)O)c1ccc(OCc2ccc(C(F)(F)F)cc2)nc1` (centres unmarked) [Example 17, 3-Ethoxy-3-(6-{[4-(trifluoromethyl)benzyl]oxy}pyridin-3-yl)propionic acid] was tested, and the inhibition in vivo at 1 mg/kg was 38%.
For `CCO[C@@H](CC(=O)O)c1ccc(OCc2ccc(C(F)(F)F)cc2)cc1` [Example 49, (3S)-3-Ethoxy-3-(4-{[4-(trifluoromethyl)benzyl]oxy}phenyl)propionic acid], the inhibition in vivo at 1 mg/kg was 37%.
For `CCOC(CC(=O)O)c1ccc(OCc2ccc(Cl)c(Cl)c2)cc1` (centres unmarked) [Example 1, 3-{4-[(3,4-Dichlorobenzyl)oxy]phenyl}-3-ethoxypropionic acid], the inhibition in vivo at 1 mg/kg was 25%.
